Assay [1] concerns the target T1, Alpha-1A adrenergic receptor (Rattus norvegicus, UniProt P43140).
T1 sequence (P43140 whole entry): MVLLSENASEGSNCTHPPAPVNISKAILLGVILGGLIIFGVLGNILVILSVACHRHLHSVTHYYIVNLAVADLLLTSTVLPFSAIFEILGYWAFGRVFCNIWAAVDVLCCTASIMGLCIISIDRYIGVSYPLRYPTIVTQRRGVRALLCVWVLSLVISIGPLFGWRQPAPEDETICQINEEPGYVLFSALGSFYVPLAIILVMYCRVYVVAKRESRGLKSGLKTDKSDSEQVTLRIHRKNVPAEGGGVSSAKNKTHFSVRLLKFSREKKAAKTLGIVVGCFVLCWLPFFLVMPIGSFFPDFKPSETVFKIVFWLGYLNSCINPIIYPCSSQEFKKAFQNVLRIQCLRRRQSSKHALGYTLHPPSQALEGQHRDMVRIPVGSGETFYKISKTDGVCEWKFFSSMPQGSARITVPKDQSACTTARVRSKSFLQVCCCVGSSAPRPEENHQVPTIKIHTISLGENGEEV
Kind of assay: DRUGMATRIX: Alpha-1A adrenergic receptor radioligand binding (ligand: prazosin). The assay is classed as cell membranes, Wistar, Submaxillary gland, Membrane. The following applies: Not Active = under 50% inhibition at 10 µM; for Ki: read-out: Ki.

Assay [2] deals with T2, Alpha-1B adrenergic receptor (Rattus norvegicus, UniProt P15823).
T2 sequence (P15823 whole entry): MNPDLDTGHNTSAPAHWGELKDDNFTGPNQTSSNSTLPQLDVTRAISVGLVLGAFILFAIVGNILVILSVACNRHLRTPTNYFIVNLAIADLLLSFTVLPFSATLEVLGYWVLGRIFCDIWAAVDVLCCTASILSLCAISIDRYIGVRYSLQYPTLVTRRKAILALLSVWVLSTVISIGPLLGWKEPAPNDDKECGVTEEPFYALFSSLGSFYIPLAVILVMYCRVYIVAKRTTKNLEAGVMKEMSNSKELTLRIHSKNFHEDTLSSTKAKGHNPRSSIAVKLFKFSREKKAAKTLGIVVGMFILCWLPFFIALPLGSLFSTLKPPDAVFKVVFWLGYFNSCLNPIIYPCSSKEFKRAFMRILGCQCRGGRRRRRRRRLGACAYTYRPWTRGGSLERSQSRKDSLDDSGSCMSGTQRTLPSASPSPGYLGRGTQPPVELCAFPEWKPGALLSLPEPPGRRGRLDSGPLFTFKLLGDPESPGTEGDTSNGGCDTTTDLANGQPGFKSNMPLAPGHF
Kind of assay: DRUGMATRIX: Alpha-1B adrenergic receptor radioligand binding (ligand: prazosin). In kind it is cell membranes, Wistar, Liver, Membrane. The following applies: Not Active = under 50% inhibition at 10 µM; for Ki: read-out: Ki.

Assay [3] in a line: DRUGMATRIX: Calcium Channel Type L, Benzothiazepine radioligand binding (ligand: [3H] Diltiazem). In kind it is cell membranes, Rattus norvegicus, Wistar, Brain, Membrane. The note with it: Not Active = under 50% inhibition at 10 µM.
Assay [4] in a line: DRUGMATRIX: Calcium Channel Type L, Phenylalkylamine radioligand binding (ligand: [3H] (-)-Desmethoxyverapamil (D-888)). In kind it is cell membranes, Rattus norvegicus, Wistar, Brain, Membrane. The following applies: Not Active = under 50% inhibition at 10 µM.
The target in another assay is Melanocortin receptor 4 (Homo sapiens, UniProt P32245). In kind it is cell membranes, HEK293, Membrane. The note with it: hek293. Note: in other assays of this panel Not Active means under 50% inhibition at 10 µM.
Melanocortin receptor 4, sequence (P32245 whole entry): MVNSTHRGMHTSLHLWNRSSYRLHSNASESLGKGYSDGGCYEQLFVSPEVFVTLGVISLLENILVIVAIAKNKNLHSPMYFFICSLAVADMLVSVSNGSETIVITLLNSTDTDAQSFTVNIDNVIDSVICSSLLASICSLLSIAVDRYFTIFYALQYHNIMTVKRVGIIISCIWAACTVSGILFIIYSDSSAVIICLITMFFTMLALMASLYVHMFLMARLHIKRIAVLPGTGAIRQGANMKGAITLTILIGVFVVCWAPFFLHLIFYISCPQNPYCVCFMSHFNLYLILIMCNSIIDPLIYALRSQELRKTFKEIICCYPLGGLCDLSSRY

The IC50 is the concentration needed to halve the response being measured. By Ki is commonly meant the dissociation constant of the complex between target and ligand, obtained from inhibition or displacement.

On to `Cc1cc2c(OCC(CNC(C)(C)C)OC(=O)c3ccccc3)cccc2[nH]1` (configuration not stated) [BOPINDOLOL], for which the IC50 entry was “Not Active” in assay [1]; “Not Active” in assay [2]; 2.81 µM in assay [3] (read-out: IC50); 2.9 µM in assay [4] (read-out: IC50); “Not Active” against Melanocortin receptor 4. Besides, the inhibition constant (Ki) came out at 2.49 µM in assay [3] (read-out: Ki) and 2.82 µM in assay [4] (read-out: Ki).

As for `Brc1c(NC2=NCCN2)ccc2nccnc12` [BRIMONIDINE], the half-maximal inhibitory concentration (IC50) was 6.34 µM in assay [1] (read-out: IC50); “Not Active” in assay [2]; “Not Active” in assay [3]; “Not Active” in assay [4]; “Not Active” on Melanocortin receptor 4. The inhibition constant (Ki) in assay [1] was 2.57 µM; in assay [3], “Not Active”; in assay [4] it was “Not Active”.

`CN(C)[C@@H]1C(O)=C(C(N)=O)C(=O)[C@@]2(O)C(O)=C3C(=O)c4c(O)ccc(Cl)c4[C@@](C)(O)[C@H]3C[C@@H]12` [CHLORTETRACYCLINE]: the IC50 entry (in assay [1]; in assay [2]; in assay [3]; in assay [4]; against Melanocortin receptor 4) was “Not Active” in each case. Further, the Ki entry in assay [3] and in assay [4] was “Not Active” in each case.

On to `CN/C(=N\CCSCc1nc[nH]c1C)NC#N` [CIMETIDINE], for which the IC50 entry (in assay [1]; in assay [2]; in assay [3]; in assay [4]; against Melanocortin receptor 4) was “Not Active” each time. Also, the Ki result in assay [3] and in assay [4] was “Not Active” each time.

For the compound `COc1cc(N)c(Cl)cc1C(=O)NC1CCN(CCCOc2ccc(F)cc2)CC1OC` (configuration not stated) [CISAPRIDE], the concentration for half-maximal inhibition (IC50) was 0.12 µM in assay [1] (read-out: IC50); 0.016 µM in assay [2] (read-out: IC50); 0.802 µM in assay [3] (read-out: IC50); 0.53 µM in assay [4] (read-out: IC50); “Not Active” against Melanocortin receptor 4. For the same compound, the Ki in assay [1] came out at 0.049 µM; in assay [2] it was 0.00865 µM; in assay [3] (read-out: Ki) it was 0.713 µM; in assay [4] (read-out: Ki) it was 0.515 µM.

As for `CCC(=O)O[C@]1(C(=O)CCl)[C@@H](C)C[C@H]2[C@@H]3CCC4=CC(=O)C=C[C@]4(C)[C@@]3(F)[C@@H](O)C[C@@]21C` [CLOBETASOL PROPIONATE], the IC50 result (in assay [1]; in assay [2]; in assay [3]; in assay [4]; against Melanocortin receptor 4) was “Not Active” in each case. In addition, the Ki result in assay [3] and in assay [4] was “Not Active” each time.

Take `O=C1CN=C(c2ccccc2Cl)c2cc([N+](=O)[O-])ccc2N1` [CLONAZEPAM]: the half-maximal inhibitory concentration (IC50) entry (in assay [1]; in assay [2]; in assay [3]; in assay [4]; on Melanocortin receptor 4) was “Not Active” throughout. For the same compound, the Ki entry in assay [3] and in assay [4] was “Not Active” throughout.

For the compound `Nc1ccn([C@@H]2O[C@H](CO)[C@@H](O)[C@@H]2O)c(=O)n1` [CYTARABINE], the IC50 entry (in assay [1]; in assay [2]; in assay [3]; in assay [4]; against Melanocortin receptor 4) was “Not Active” each time. Further, the inhibitory constant (Ki) result in assay [3] and in assay [4] was “Not Active” in each case.

For `C[C@@H]1C[C@H]2[C@@H]3CCC4=CC(=O)C=C[C@]4(C)[C@@]3(F)[C@@H](O)C[C@]2(C)[C@H]1C(=O)CO` [DESOXIMETASONE], the concentration for half-maximal inhibition (IC50) result (in assay [1]; in assay [2]; in assay [3]; in assay [4]; on Melanocortin receptor 4) was “Not Active” in each case. The inhibitory constant (Ki) entry in assay [3] and in assay [4] was “Not Active” in each case.

Consider `C[C@@H]1C[C@H]2[C@@H]3CCC4=CC(=O)C=C[C@]4(C)[C@@]3(F)[C@@H](O)C[C@]2(C)[C@@]1(O)C(=O)CO` [DEXAMETHASONE], for which the concentration for half-maximal inhibition (IC50) entry (in assay [1]; in assay [2]; in assay [3]; in assay [4]; against Melanocortin receptor 4) was “Not Active” each time. In addition, the inhibition constant Ki entry in assay [3] and in assay [4] was “Not Active” in each case.

On to `CN(C)CC[C@@H](c1ccc(Cl)cc1)c1ccccn1` [DEXCHLORPHENIRAMINE], for which the half-maximal inhibitory concentration (IC50) result was “Not Active” in assay [1]; 15.6 µM in assay [2] (read-out: IC50); 6.13 µM in assay [3] (read-out: IC50); 3.81 µM in assay [4] (read-out: IC50); “Not Active” on Melanocortin receptor 4. Also, the results for the Ki in assay [2], in assay [3] (read-out: Ki) and in assay [4] (read-out: Ki) were 8.61 µM, 5.45 µM and 3.7 µM, respectively.

Take `C[C@@H]1CC[C@@]2(OC1)O[C@H]1[C@@H](O)[C@H]3[C@@H]4CC[C@H]5C[C@@H](O[C@@H]6O[C@H](CO)[C@H](O[C@@H]7O[C@H](CO)C(O)[C@H](O[C@@H]8OC[C@@H](O)[C@H](O)[C@H]8O)[C@H]7O[C@@H]7O[C@H](CO)[C@H](O)[C@H](O[C@@H]8O[C@H](CO)[C@@H](O)[C@H](O)[C@H]8O)[C@H]7O)[C@H](O)[C@H]6O)[C@H](O)C[C@]5(C)[C@H]4CC[C@]3(C)[C@H]1[C@@H]2C` (some centres not stated) [DIGITONIN]: the half-inhibitory concentration (IC50) result (in assay [1]; in assay [2]; in assay [3]; in assay [4]; against Melanocortin receptor 4) was “Not Active” in each case. Besides, the Ki entry in assay [3] and in assay [4] was “Not Active” in each case.

As for `OC(CCCN1CCCCC1)(c1ccccc1)c1ccccc1` [DIPHENIDOL], the IC50 entry in assay [1] is “Not Active”; in assay [2] (read-out: IC50), 4.76 µM; in assay [3] it was “Not Active”; in assay [4] (read-out: IC50) it was 4.5 µM; on Melanocortin receptor 4, “Not Active”. The figures for the inhibition constant (Ki) in assay [2], in assay [3] and in assay [4] (read-out: Ki) were 2.64 µM, “Not Active” and 4.38 µM, respectively.

In the case of `C[C@H]1O[C@@H](n2cc(F)c(=O)[nH]c2=O)[C@H](O)[C@@H]1O` [DOXIFLURIDINE], the IC50 result (in assay [1]; in assay [2]; in assay [3]; in assay [4]; against Melanocortin receptor 4) was “Not Active” each time. Moreover, the Ki entry in assay [3] and in assay [4] was “Not Active” in each case.

For the compound `Cn1c(=O)c2c(ncn2CC(O)CO)n(C)c1=O` (configuration not stated) [DYPHYLLINE], the 50% inhibitory concentration (IC50) result (in assay [1]; in assay [2]; in assay [3]; in assay [4]; against Melanocortin receptor 4) was “Not Active” in each case. Besides, the Ki entry in assay [3] and in assay [4] was “Not Active” in each case.

For `CC[C@H]1CN2CCc3cc(OC)c(OC)cc3[C@@H]2C[C@@H]1C[C@H]1NCCc2cc(OC)c(OC)cc21` [EMETINE], the half-inhibitory concentration (IC50) in assay [1] (read-out: IC50) was 6.53 µM; in assay [2] (read-out: IC50), 1.93 µM; in assay [3] (read-out: IC50) it was 2.36 µM; in assay [4], “Not Active”; against Melanocortin receptor 4 it was “Not Active”. Besides, the Ki is 2.64 µM in assay [1], 1.07 µM in assay [2], 2.09 µM in assay [3] (read-out: Ki) and “Not Active” in assay [4].

As for `C[C@@H](CO)NC(=O)[C@@H]1C=C2c3cccc4[nH]cc(c34)C[C@H]2N(C)C1` [ERGONOVINE], the IC50 entry (in assay [1]; in assay [2]; in assay [3]; in assay [4]; against Melanocortin receptor 4) was “Not Active” each time. Further, the inhibitory constant (Ki) result in assay [3] and in assay [4] was “Not Active” each time.

In the case of `COC(=O)CCc1ccc(OCC(O)CNC(C)C)cc1` (configuration not stated) [ESMOLOL], the half-maximal inhibitory concentration (IC50) result (in assay [1]; in assay [2]; in assay [3]; in assay [4]; against Melanocortin receptor 4) was “Not Active” in each case. In addition, the Ki entry in assay [3] and in assay [4] was “Not Active” each time.

For `CCC1(C)CC(=O)NC1=O` (configuration not stated) [ETHOSUXIMIDE], the IC50 entry (in assay [1]; in assay [2]; in assay [3]; in assay [4]; at Melanocortin receptor 4) was “Not Active” each time. Besides, the Ki result in assay [3] and in assay [4] was “Not Active” throughout.

With `C#C[C@]1(OC(C)=O)CC[C@H]2[C@@H]3CCC4=C[C@@H](OC(C)=O)CC[C@@H]4[C@H]3CC[C@@]21C` [ETHYNODIOL DIACETATE], the 50% inhibitory concentration (IC50) entry (in assay [1]; in assay [2]; in assay [3]; in assay [4]; on Melanocortin receptor 4) was “Not Active” each time. Further, the Ki entry in assay [3] and in assay [4] was “Not Active” each time.
